This assay relates to BDF1 mice, B16 melanoma ip, median survival T/C. As to the kind of experiment: NCI In Vivo Anticancer Drug Screen. Data for tumor model B16 Melanoma (intraperitoneal) in B6D2F1 (BDF1) mice. The settings on record: endpoint: median survival time, higher = longer survival. The method, boiled down:
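Mice with transplantable tumors; drug vs vehicle groups; endpoint survival or tumor size; value = T/C.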

Setting [1] is: dose: 6.25 mg/kg/injection, schedule: Q01DX009 (ip), vehicle: saline with Tween-80.
[2] abbreviates: dose: 100.0 mg/kg/injection, schedule: Q01DX009 (ip), vehicle: Klucel (hydroxypropylcellulose) (HPC).
[3] abbreviates: dose: 200.0 mg/kg/injection, schedule: Q01DX009 (ip), vehicle: Klucel (hydroxypropylcellulose) (HPC).
[4] abbreviates: dose: 50.0 mg/kg/injection, schedule: Q01DX009 (ip), vehicle: saline with Tween-80.
Setting [5] is: dose: 100.0 mg/kg/injection, schedule: Q01DX009 (ip), vehicle: saline with Tween-80.
[6] abbreviates: dose: 50.0 mg/kg/injection, schedule: Q01DX009 (ip), vehicle: Klucel (hydroxypropylcellulose) (HPC).
Setting [7] is: dose: 12.5 mg/kg/injection, schedule: Q01DX009 (ip), vehicle: saline with Tween-80.
Where [8] appears, read: dose: 25.0 mg/kg/injection, schedule: Q01DX009 (ip), vehicle: saline with Tween-80.
Where [9] appears, read: dose: 25.0 mg/kg/injection, schedule: Q01DX009 (ip), vehicle: saline.
The mark [10] stands for this setting: dose: 50.0 mg/kg/injection, schedule: Q01DX009 (ip), vehicle: saline.
Where [11] appears, read: dose: 100.0 mg/kg/injection, schedule: Q01DX009 (ip), vehicle: saline.

Data on 20 compounds can be found in PubChem BioAssay AID192 (DTP/NCI, 2004).

Values joined by “and” are separate entries in the source; they are usually repeats but may differ in a detail not shown here. Equal values may be shown once. Toxic doses and inconclusive results are not listed.

As to `C=CCc1c(C)ccc(C)c1OC`, the T/C (dose: 25.0 mg/kg/injection, schedule: Q04DX003 (ip), vehicle: Klucel (hydroxypropylcellulose) (HPC)) is 102 % of control; the T/C (dose: 50.0 mg/kg/injection, schedule: Q04DX003 (ip), vehicle: Klucel (hydroxypropylcellulose) (HPC)) was 101 % of control; the T/C (dose: 100.0 mg/kg/injection, schedule: Q04DX003 (ip), vehicle: Klucel (hydroxypropylcellulose) (HPC)) was 93 % of control.
`CNC(=S)N/N=C1/c2cc(Cl)ccc2-c2c(Cl)cc(Cl)cc21`: under setting [1], the T/C was 91 % of control.
With `Cc1[nH]c(=O)[nH]c(=O)c1N(CCF)CCCl`, the T/C is, setting by setting: (dose: 1.8 mg/kg/injection, schedule: Q01DX009 (ip), vehicle: saline with Tween-80) 110 % of control; (dose: 3.0 mg/kg/injection, schedule: Q01DX009 (ip), vehicle: saline with Tween-80) 110 % of control; (dose: 5.0 mg/kg/injection, schedule: Q01DX009 (ip), vehicle: Klucel (hydroxypropylcellulose) (HPC)) 100 % of control; (dose: 8.0 mg/kg/injection, schedule: Q01DX009 (ip), vehicle: acid diluted with saline) 123 % of control; (dose: 14.0 mg/kg/injection, schedule: Q01DX009 (ip), vehicle: saline with Tween-80) 165 % of control; (dose: 16.0 mg/kg/injection, schedule: Q01DX009 (ip), vehicle: saline with Tween-80) 121 % of control. The T/C was 107 % of control (dose: 16.0 mg/kg/injection, schedule: Q04DX003 (ip), vehicle: acid diluted with saline); 123 % of control (dose: 16.0 mg/kg/injection, schedule: Q04DX003 (ip), vehicle: saline with Tween-80); 118 % of control (dose: 32.0 mg/kg/injection, schedule: Q04DX003 (ip), vehicle: acid diluted with saline); 180 % of control (dose: 32.0 mg/kg/injection, schedule: Q04DX003 (ip), vehicle: saline with Tween-80).
Consider `CC1=CC(O)C(O)C2(C)C1CC(=O)C13COC4OC(CC1C4=O)C(O)C32` (stereo not given), for which the T/C reads like this: (dose: 0.4 mg/kg/injection, schedule: Q01DX009 (ip), vehicle: saline with Tween-80) 106 % of control; (dose: 0.8 mg/kg/injection, schedule: Q01DX009 (ip), vehicle: saline with Tween-80) 110 % of control; (dose: 1.6 mg/kg/injection, schedule: Q01DX009 (ip), vehicle: saline with Tween-80) 113 % of control; (dose: 3.2 mg/kg/injection, schedule: Q01DX009 (ip), vehicle: saline with Tween-80) 110 % of control; (dose: 5.0 mg/kg/injection, schedule: Q01DX009 (ip), vehicle: saline with Tween-80) 90 % of control; (dose: 10.0 mg/kg/injection, schedule: Q01DX009 (ip), vehicle: saline with Tween-80) 91 % of control.
On to `Cc1ccc(S(=O)(=O)Nc2ccccc2-c2nc3c(Cl)ccc(Cl)c3c(=O)o2)cc1`, for which the T/C was 105 % of control under setting [2] and 92 % of control under setting [3].
Turning to `CCC1CC2CN(CCc3c([nH]c4ccccc34)C(C(=O)OC)(c3cc4c(cc3OC)N(C)C3C(O)(C(=O)OC)C(OC(C)=O)C5(CC)C=CCN6CCC43C65)C2)C1` (stereo not given), the T/C is, setting by setting: (dose: 0.05 mg/kg/injection, schedule: Q01DX009 (ip), vehicle: Klucel (hydroxypropylcellulose) (HPC)) 111 % of control; (dose: 0.06 mg/kg/injection, schedule: Q01DX009 (ip), vehicle: water) 109 % of control and 110 % of control; (dose: 0.13 mg/kg/injection, schedule: Q01DX009 (ip), vehicle: water) 105 % of control and 114 % of control; (dose: 0.25 mg/kg/injection, schedule: Q01DX009 (ip), vehicle: water) 173 % of control; (dose: 0.4 mg/kg/injection, schedule: Q01DX009 (ip), vehicle: Klucel (hydroxypropylcellulose) (HPC)) 192 % of control; (dose: 0.5 mg/kg/injection, schedule: Q01DX009 (ip), vehicle: water) 210 % of control. Besides, the T/C (dose: 0.5 mg/kg/injection, schedule: Q04DX003 (ip), vehicle: water) is 166 % of control; the T/C (dose: 0.8 mg/kg/injection, schedule: Q01DX009 (ip), vehicle: Klucel (hydroxypropylcellulose) (HPC)) was 224 % of control; the T/C (dose: 1.0 mg/kg/injection, schedule: Q01DX009 (ip), vehicle: water) is 151 % of control and 163 % of control and 174 % of control; the T/C (dose: 1.0 mg/kg/injection, schedule: Q04DX003 (ip), vehicle: water) is 206 % of control; the T/C (dose: 1.6 mg/kg/injection, schedule: Q01DX009 (ip), vehicle: Klucel (hydroxypropylcellulose) (HPC)) is 229 % of control; the T/C (dose: 2.0 mg/kg/injection, schedule: Q01DX009 (ip), vehicle: water) is 170 % of control and 178 % of control. The T/C (dose: 2.0 mg/kg/injection, schedule: Q04DX003 (ip), vehicle: water) was 234 % of control.
As for `Cc1cc(N(CCCl)CCCl)ccc1C=Nc1cccnc1`, the T/C runs as follows: under setting [4], 119 % of control; under setting [5], 124 % of control.
Turning to `COC(=O)c1cc(Cl)ccc1OCC(=O)Nc1ccc([N+](=O)[O-])cc1`, the T/C runs as follows: under setting [6], 100 % of control; under setting [2], 100 % of control.
With `NC(N)=Nc1ccc(C(=O)Oc2ccc([N+](=O)[O-])cc2Cl)cc1`, the T/C is, setting by setting: under setting [7], 97 % of control; under setting [8], 101 % of control; under setting [4], 93 % of control.
In the case of `COc1ccc(N=NN(C(C)=O)c2ccccc2)cc1`, the T/C runs as follows: under setting [2], 102 % of control; under setting [3], 102 % of control.
With `OCCNCCNc1ccnc2cc(Cl)ccc12`, the T/C is, setting by setting: (dose: 12.5 mg/kg/injection, schedule: Q01DX009 (ip), vehicle: saline) 89 % of control; under setting [9], 104 % of control; under setting [10], 99 % of control; under setting [11], 110 % of control.
Take `COc1ccccc1NC(=O)Nc1cccc(C(C)=O)c1`: the T/C runs as follows: under setting [5], 94 % of control; (dose: 200.0 mg/kg/injection, schedule: Q01DX009 (ip), vehicle: saline with Tween-80) 92 % of control.
`CN1CCc2cc3c(cc2C1)OCO3`: the T/C under setting [9] is 94 % of control, the T/C under setting [10] is 93 % of control and the T/C under setting [11] is 95 % of control.
With `CCOC1=C(N2CC2)C(=O)C(OCC)=C(N2CC2)C1=O`, the T/C is, setting by setting: (dose: 0.5 mg/kg/injection, schedule: Q01DX009 (ip), vehicle: saline) 105 % of control; (dose: 2.0 mg/kg/injection, schedule: Q01DX009 (ip), vehicle: saline) 121 % of control.
In the case of `COCCNCCOC`, the T/C was 118 % of control (dose: 160.0 mg/kg/injection, schedule: Q01DX009 (ip), vehicle: saline) and 121 % of control (dose: 370.0 mg/kg/injection, schedule: Q01DX009 (ip), vehicle: saline).
As to `CCC/C(C)=N/Nc1ccccn1`, the T/C (dose: 12.5 mg/kg/injection, schedule: Q01DX009 (ip), vehicle: saline sonified) is 97 % of control; the T/C (dose: 25.0 mg/kg/injection, schedule: Q01DX009 (ip), vehicle: saline sonified) is 95 % of control; the T/C (dose: 50.0 mg/kg/injection, schedule: Q01DX009 (ip), vehicle: saline sonified) is 97 % of control; the T/C (dose: 100.0 mg/kg/injection, schedule: Q01DX009 (ip), vehicle: saline sonified) is 100 % of control.
For `O=C(NN=C1CCCCC1)c1ccccc1`, the T/C by setting is: (dose: 18.75 mg/kg/injection, schedule: Q01DX009 (ip), vehicle: saline with Tween-80) 97 % of control; (dose: 37.5 mg/kg/injection, schedule: Q01DX009 (ip), vehicle: saline with Tween-80) 100 % of control; (dose: 75.0 mg/kg/injection, schedule: Q01DX009 (ip), vehicle: saline with Tween-80) 105 % of control and 107 % of control.
On to `CS(=O)(=O)Nc1ccc(Nc2c3ccccc3nc3cc([N+](=O)[O-])ccc23)cc1`, for which the T/C is 112 % of control (dose: 0.6 mg/kg/injection, schedule: Q01DX009 (ip), vehicle: saline sonified); 154 % of control (dose: 2.5 mg/kg/injection, schedule: Q01DX009 (ip), vehicle: saline sonified); 158 % of control (dose: 50.0 mg/kg/injection, schedule: Q01DX001 (ip), vehicle: saline sonified).
Regarding `OC(CC(O)(C(F)(F)F)C(F)(F)F)CC(O)(C(F)(F)F)C(F)(F)F`, the T/C runs as follows: under setting [1], 114 % of control; (dose: 6.25 mg/kg/injection, schedule: Q04DX003 (ip), vehicle: saline) 92 % of control; under setting [7], 97 % of control; (dose: 12.5 mg/kg/injection, schedule: Q04DX003 (ip), vehicle: saline) 97 % of control; under setting [8], 108 % of control; (dose: 25.0 mg/kg/injection, schedule: Q04DX003 (ip), vehicle: saline) 105 % of control.
`CCCCOP(=O)(CCl)OCCCC`: the T/C under setting [6] was 97 % of control and the T/C under setting [2] was 86 % of control.
